Data taken from US20150335678A1, “METHOD OF ACTIVATING STEM CELLS IN AN ANIMAL AND THE USE OF CHLORINE DIOXIDE FOR PREPARING MEDICINES FOR ACTIVATING STEM CELLS IN AN ANIMAL” (priority 2012, published 2015).

What was measured:
[1] = test system: postoperative complications of lung cancer; assay: Postoperative complications of lung cancer (Example 12); assay type: in vivo, human; details: 15 patients
Method: The subjects consisted of 30 lung cancer patients of stage I, II III who had operations on lung cancer just now. The subjects were randomly assigned to treatment group and control group with 15 patients respectively.
[…] acid aqueous solution with a ph value of 3 was made by citric acid and deionized water. 500 ml aqueous solution of 30% was made with deionized water and sodium chlorite, 500 ml aqueous solution of 50% was made with deionized water and citric acid. To mix the above solutions in a conical beaker of 2 L capacity and then put them in the prepared acid aqueous solution by a plastic tube with bottle stopper. The activating agent of stem cells comprising chlorine dioxide was made by bubbling chlorine dioxide in the acid aqueous solution for 40 minutes and the solution was contained in 150 plastic bottles with 100 ml capacity and stored in the fridge.
Each patient in treatment group received 10 bottles of the solution. Open the plastic bottle cap and do alternate nostril breathing for 2-10 minutes on day 2 after the operation with a bottle a day for three times, then cover the bottleneck once finished. No special nursing means were applied in control group, then observe the complications a month after the operation.

[2] = test system: CD34-positive mononuclear cells; assay: CD34-positive mononuclear cells in peripheral blood of lower limb DVT patients, flow cytometry (Example 2); assay type: in vivo, human; details: before administration 0.38 ± 0.42, 14 days
Excerpt: The subjects consisted of 14 male and 6 female lower limb DVT patients with the unilateral limb suffer from the illness, aged from 59 to 76 years old (average age: 67.2 years old). The purpose of the clinical test was explained to all subjects and their consent was obtained before conducting the clinical test.
The first solution was a mixed solution made of sodium chlorite with the concentration of 7.47% and sodium chloride with the concentration of 1.59% with deionized water; the second solution was made of citric acid with the concentration of 16.7% with deionized water. Same volume of solutions were taken out from different vessels with different volumes and mixed up. Allow the solution to mix for 3-5 minutes and dilute it 5 times with normal saline, then filter it with 0.22 μm filter membrane of double-deck. The solution was immediately put into injector. The solution was prepared once being used. […]
Five ml of peripheral blood was collected from the median cubital vein of the forearm of each patient using low molecular weight heparin anticoagulant before administration (before initial administration) and on day 7 and 14 after administration, and the collected blood was immediately stored at 4° C. and measured within 6 hours after collection. […]

chronic eczema = assay: Chronic eczema patients, topical solution (Example 7); assay type: in vivo, human
Method: The subjects consisted of 12 patients with chronic eczema and average seven years of course of disease. External used medicines and oral administration, such as glucocorticoid and antihistamine drug were used discontinuously, but were poor in treatment. Activating agent was administered according to the following methods:
To smear solution over the affected parts immediately, once a day for consecutive 10 to 15 days, and then stop administration. If the eczema relapsed, reusing it again.

[3] = test system: chronic and allergic rhinitis; assay: Chronic and allergic rhinitis patients vs ephedrine nose drops (Example 9); assay type: in vivo, human
Excerpt: The subjects consisted of 30 patients with chronic and allergic rhinitis, and half of them were randomly assigned to treatment group and control group.
The first solution was a mixed solution made of sodium chlorite with the concentration of 7.47% and sodium chloride with the concentration of 1.59% with deionized water; the second solution was made of citric acid with the concentration of 16.7% with deionized water. The solution comprising chlorine dioxide was made by mixing up the two solutions above. To make 50 ml solution for each patient each time and put it into a bottle and stores it in the refrigerator. 2-5 ml of solution for each patient each time was taken out and put into a beaker. The patients would breathe aiming at the cup-mouth for one to two minutes, and then the solution was diluted five to hundred times with normal saline before being put into nasal spray. To spray on each side of nose for three to five times. It was conducted once a day for consecutive 5 to 10 days. Then the administration was stopped, reuse the administration method for recurrence. The course of treatment was three months. The administration for patients in control group: use the ephedrine nose drops three times a day with three drops on each side each time for consecutive seven days. Reuse the administration method for recurrence. The course of treatment was three months.
Evaluation of the effects: The effects can be divided into excellent, effective and ineffective according to symptoms and signs. 1) Excellent: subjective symptoms disappear and positive sign become normal. 2) Effective: subjective symptoms and positive sign decrease obviously. […] Total effective rate(%)=(No. of excellent cases+No. of effective cases)/total cases×100%. Recurrence rate of rhinitis after treatment means the recurrence rate six months after treatment of all the cases. Table 19 is about the treatment of rhinitis.

alopecia areata = assay: Alopecia areata patients, topical solution with dimethyl sulfoxide (Example 4); assay type: in vivo, human
Method: The first solution was a mixed solution made of sodium chlorite with the concentration of 7.47% and sodium chloride with the concentration of 1.59% with deionized water; the second solution was made of citric acid with the concentration of 16.7% with deionized water.
Same volume of solutions were taken out from different vessels with different volumes and put into the suitable glass or plastic cups prepared. Allow the solution to mix for 3-5 minutes and then filter the solution with 0.22 μm filter membrane of double-deck, dimethyl sulfoxide was added in a ratio of 1:1, and then smear solution over the alopecia areata with the swab, waiting for 1-2 hours before cleaning the head, the drug was administered once a day according to the method. The first period lasted for 15-25 days, then the drug was stopped for 2-5 months; The second period lasted for 15-25 days in the light of the situation.
The subjects consisted of 11 male alopecia areata patients and a patient (the patients are between 22-40 years old.) They administered the activating agent of stem cell as volunteers, see Table 12.

rat = details: ClO2 276.5 mg/L, cited from earlier work
[4] = 12 cases traced for eight months
[5] = 30 cases per group, three-month course

## [O][Cl+][O-] [chlorine dioxide solution, chlorine dioxide]
[1]; a month after lung cancer operation, ClO2 gas bubbled into pH 3 citric acid solution, nostril breathing 2-10 minutes three times a day, 10 bottles, control 4 (26.7%)
  Serious complications (No.): 1
[1]; a month after operation, inhalation, control 5 (33.3%)
  No complication (No.): 9
[1]; a month after operation, inhalation, control 6 (40%)
  Minor complications (No.): 5
[1]; a month after operation, inhalation, control 26.7%
  Serious complications (%): 6.7%
[1]; a month after operation, inhalation, control 33.3%
  No complication (%): 60%
[1]; a month after operation, inhalation, control 40%
  Minor complications (%): 33.3%
[2]; Day 7 after administration, n=20, NaClO2 7.47% + citric acid 16.7% 1:1 diluted 5 times, 10 ml/body/day femoral artery puncture
  CD34-Positive Mononuclear Cells (ratio among mononuclear cells, mean±SD): 0.91 ± 0.51 %
[2]; Day 14 after administration, n=15, diluted solution 10 ml/body/day femoral artery puncture
  CD34-Positive Mononuclear Cells (ratio among mononuclear cells, mean±SD): 1.4 ± 0.68 %
Chronic eczema; [4]
  cases that recurred once and did not recur after treatment for two times: four
  cases that recurred twice and did not recur after the third treatment: two
  cases with no recurrence: six
Chronic eczema; 12 chronic eczema patients
  clinical sign and pathological change of tissue after treatment: became normal
Chronic eczema; 12 chronic eczema patients, NaClO2 8%/NaCl 2% + citric acid 12% 1:1, smeared once a day 10 to 15 days
  time until stabbing pain and itching disappeared after administration: about half an hour
Chronic eczema; 12 chronic eczema patients, topical once a day
  time until the affected parts scabbed: two to five days
[3]; [5]
  Effective (No. of cases): symptoms and signs decrease obviously: 3
  Effective rate = (excellent + effective)/total cases: 97%
  Ineffective (No. of cases): 1
[3]; 30 cases per group, three-month course, test: NaClO2 7.47% + citric acid 16.7%, breathed 1-2 min then nasal spray diluted 5-100 times, once a day 5 to 10 days, control three times a day seven days
  Excellent (No. of cases): symptoms disappear, signs normal: 26
[3]; six months after treatment
  No. of Recurrences: 3
  Recurrence rate: 10%
Alopecia areata; course of disease more than 12 months, 7 patients
  time until new hair equably grew, second period of administration: equably grow 3-5 days.
Alopecia areata; course of disease more than 12 months, 7 patients, NaClO2 7.47% + citric acid 16.7% 1:1, DMSO 1:1, smeared once a day
  time until new hair grew along the alopecia areata area, first period of administration: 3-5 days after
Alopecia areata; course of disease within 12 months, 5 patients
  time until new hair grew, second period of administration: 3-5 days after
Alopecia areata; course of disease within 12 months, 5 patients, NaClO2 7.47% + citric acid 16.7% 1:1, DMSO 1:1, smeared once a day 15-25 days
  time until new hair grew, first period of administration: 3-5 days after
Alopecia areata; course of disease within 12 months, 5 patients, second period 15-25 days after 2-5 months off
  hair fell off, second period of administration: About 50% of hair fell
rat; NaClO2 200 mg/L, NaClO3
  accumulative toxicity classification of aqueous solution: non-obvious accumulative toxic
rat; NaClO2 and NaClO3 200 mg/L, ClO2 mixed solution total concentration 553 mg/L
  toxicity classification of aqueous solution: actually non-toxic
